Test results from patent publication EP0982027A1, “Taxoid derivatives for treating abnormal cell proliferation of the brain” (RHONE-POULENC RORER S.A., priority 1998, dated 2000).
Values joined by “and” are separate entries in the source; they are usually repeats but may differ in a detail not shown here. Equal entries are not always repeated. Where two headings read alike, the source gives them in different places.

Assay: in vivo
Set-up: species or system female C3H/HeN mice
Conditions: mouse, 40 mg.kg^-1 i.v.; for AUC0-∞: mean level data
Protocol: Groups of female C3H/HeN mice received the product by the intravenous route as a bolus at a dose level of 40 mg.kg^-1 equivalent to 120 mg.m^-2. Blood and brain samples were obtained from all dosed animals sacrificed at intervals up to 72 hours post dose. Brain and corresponding plasma samples have been assayed for product Ia content by an LC-MS/MS assay.
• Formulation: 2.25 mg.ml^-1 solution containing 5 % Polysorbate 80, 5 % ethanol and 90 % of an aqueous 5 % glucose solution. […]
• Sampling : Blood by cardiac puncture and liver and brain by dissection after CO2 sacrifice • Sample Times : at 2, 5, 15, 30, 45 minutes, 1, 2, 4, 6, 8, 14, 24, 48 and 72 hours post dose.
Whole blood was collected into heparinised tubes and corresponding plasma samples were obtained by centrifugation and frozen immediately at -20°C. Tissues were blotted, weighed and frozen immediately at -20°C. All samples were dispatched frozen for analysis. Upon receipt, samples were stored frozen at approximately -18°C pending analysis.
• Detection: LC-MS/MS (Sciex API III plus) in turbo-ionspray mode
The following MS conditions were applied:
Column: 75 x 4.6 mm Supelcosil ABZ plus (3 µm). Mobile phase: Acetonitrile/methanol/ammonium acetate (10mM); 40/25/35 v/v/v. Flow rate : 1 ml.min^-1. Temperature : Ambient. Extraction : Plasma: Add 100 µl of acetonitrile to sample (50 µl). Vortex, centrifuge, remove supernatant, add 100 µl of mobile phase and inject 150 µl. Brain : Add 100 µl of acetonitrile to homogenised sample (100 mg of a 1:1 w/w brain with water homogenate) and vortex. Add 1ml of diethyl ether, vortex, centrifuge, remove organic layer and dry under N2. Reconstitute in 200 µl of mobile phase and inject 150 µl. Calibration standards: Plasma : Nine at concentrations of 5, 10, 20, 50, 100, 200, 300, 400 & 500 ng.ml^-1 (product Ia). Prepared by adding suitable aliquots of the product (concentrations = 0.1, 1 or 10 µg.ml^-1) in ethanol to 0.5 ml aliquots of mouse plasma. Each sample was vortexed following drug addition; a 50 µl aliquot was then removed for assay. Brain : Eleven at concentrations of 10, 20, 30, 100, 200, 300, 400, 500, 1000, 2500 & 5000 ng.g^-1 in homogenised mouse brain (1:1 w/w brain with water). Prepared by adding suitable aliquots of the product (concentrations = 1, 10 or 100 µg.ml^-1) in ethanol to 0.5, 1, 3 or 4 g of homogenised mouse brain. Each sample was vortexed following drug addition and a 100 mg aliquot was then removed for assay. Retention times: Drug; product Ia: ∼2.3 min. Extraction efficiency : Plasma : ca.58 % at 200 ng.ml^-1. Brain : ca.41 % at 500 ng.g^-1 and 39 % at 1000 ng.g^-1.
A biexponential equation was fitted to the profiles using an interactive linear least-square algorithm as part of the SIPHAR package.
AUC0-∞: Area under the plasma or brain concentration versus time curve from t=0 (start of infusion) to infinity. Initial T1/2: Initial (distribution) half-life. Terminal T1/2: Terminal (elimination) half-life (should be regarded as an estimate only being dependent on sampling frequency in the terminal phase and assay sensitivity). ClT: Total plasma clearance. Vdss: Volume of distribution at steady state. n.a.: Not applicable.

CO[C@H]1C(=O)[C@]2(C)[C@@H](OC)C[C@H]3OC[C@@]3(OC(C)=O)[C@H]2[C@H](OC(=O)c2ccccc2)[C@]2(O)C[C@H](OC(=O)[C@H](O)[C@@H](NC(=O)OC(C)(C)C)c3ccccc3)C(C)=C1C2(C)C [product Ia, 4α-acetoxy-2α-benzoyloxy-5β,20-epoxy-1β-hydroxy-7β,10β-dimethoxy-9-oxo-11-taxen-13α-yl (2R,3S)-3 tert-butoxycarbonylamino-2-hydroxy-3-phenylpropionate]
AUC0-∞ (Brain, extrapolated from 72h to infinity): 788 h.µg.g^-1 and 787.8* h.µg.g^-1 | ClT (Plasma#, calculated from values ≥ b.l.q. of 20 ng.ml^-1): 1.3 L/h/kg | ClT (Plasma+, calculated from values ≥ l.o.d. of 4 ng.ml^-1): 1.3 L/h/kg | AUC0-∞ (Plasma+, calculated from values ≥ l.o.d. of 4 ng.ml^-1, listed as product Ic, 40 mg/kg): 30.0 µg·h/mL | Cmax at 14 h (brain, iv, at 14h, read-out: brain peak levels): 9100 ng/g | half-life (iv, Brain, read-out: Terminal T1/2 (converted)): 1880 min | clearance (iv, Plasma+, calculated from values ≥ l.o.d. of 4 ng.ml^-1, read-out: ClT (converted)): 21.7 mL/min/kg | time post dose up to which plasma levels were consistently above the limit of detection (limit 4 ng.ml^-1): up to 24 h | time post dose up to which plasma levels persisted above the limit of accurate quantification (limit 20 ng.ml^-1): up to 14 h | Plasma product Ic concentration (2 min after dose, individual animals IV1-IV4, 40 mg/kg, 2 min): 45942 ng/mL and 49607 ng/mL and 38994 ng/mL | Brain product Ic concentration (2 min after dose, individual animals IV1-IV4, listed as product Ic, 40 mg/kg, 2 min): 8817 ng/g and 8147 ng/g and 7630 ng/g | Plasma product Ic concentration (5 min after dose, individual animals IV1-IV4, 40 mg/kg, 5 min): 33538 ng/mL and 32077 ng/mL and 34903 ng/mL | Brain product Ic concentration (5 min after dose, individual animals IV1-IV4, listed as product Ic, 40 mg/kg, 5 min): 8473 ng/g and 7762 ng/g and 8091 ng/g | Plasma product Ic concentration (15 min after dose, individual animals IV1-IV4, 40 mg/kg, 15 min): 20897 ng/mL and 21051 ng/mL and 19459 ng/mL | Brain product Ic concentration (15 min after dose, individual animals IV1-IV4, listed as product Ic, 40 mg/kg, 15 min): 7100 ng/g and 7641 ng/g and 6481 ng/g | Plasma product Ic concentration (0.5h after dose, individual animals IV1-IV4, 40 mg/kg, 30 min): 10344 ng/mL and 9170 ng/mL and 11232 ng/mL | Brain product Ic concentration (0.5h after dose, individual animals IV1-IV4, listed as product Ic, 40 mg/kg, 30 min): 6788 ng/g and 8317 ng/g and 6894 ng/g | Plasma product Ic concentration (0.75h after dose, individual animals IV1-IV4, 40 mg/kg, 45 min): 10948 ng/mL and 8121 ng/mL and 10148 ng/mL | Brain product Ic concentration (0.75h after dose, individual animals IV1-IV4, listed as product Ic, 40 mg/kg, 45 min): 8086 ng/g and 7513 ng/g and 7272 ng/g | Plasma product Ic concentration (1h after dose, individual animals IV1-IV4, 40 mg/kg, 60 min): 7423 ng/mL and 6693 ng/mL and 6079 ng/mL | Brain product Ic concentration (1h after dose, individual animals IV1-IV4, listed as product Ic, 40 mg/kg, 60 min): 6424 ng/g and 8964 ng/g and 1747 ng/g and 7489 ng/g | Brain product Ic concentration (2h after dose, individual animals IV1-IV4, listed as product Ic, 40 mg/kg, 120 min): 8418 ng/g and 6966 ng/g and 7017 ng/g | Plasma product Ic concentration (4h after dose, individual animals IV1-IV4, 40 mg/kg, 240 min): 1110 ng/mL and 835 ng/mL and 830 ng/mL | Brain product Ic concentration (4h after dose, individual animals IV1-IV4, listed as product Ic, 40 mg/kg, 240 min): 6939 ng/g and 6712 ng/g and 5459 ng/g | Plasma product Ic concentration (6h after dose, individual animals IV1-IV4, 40 mg/kg, 360 min): 316 ng/mL and 346 ng/mL and 336 ng/mL | Brain product Ic concentration (6h after dose, individual animals IV1-IV4, listed as product Ic, 40 mg/kg, 360 min): 6688 ng/g and 7968 ng/g and 7350 ng/g and 3712 ng/g | Plasma product Ic concentration (8h after dose, individual animals IV1-IV4, 40 mg/kg, 480 min): 199 ng/mL and 195 ng/mL and 154 ng/mL | Brain product Ic concentration (8h after dose, individual animals IV1-IV4, listed as product Ic, 40 mg/kg, 480 min): 6977 ng/g and 8616 ng/g and 8342 ng/g | Plasma product Ic concentration (14h after dose, individual animals IV1-IV4, 40 mg/kg, 840 min): 56 ng/mL and 50 ng/mL and 52 ng/mL | Brain product Ic concentration (14h after dose, individual animals IV1-IV4, listed as product Ic, 40 mg/kg, 840 min): 10049 ng/g and 7595 ng/g and 9271 ng/g | Brain product Ic concentration (24 h after dose, individual animals IV1-IV4, listed as product Ic, 40 mg/kg, 1440 min): 9842 ng/g and 7885 ng/g and 9052 ng/g | Plasma product Ic concentration (24 h after dose, individual animals IV1-IV4, values flagged blq (below limit of accurate quantification, 20 ng.ml^-1), 40 mg/kg, 1440 min): 15(blq) ng.ml^-1 (2×) and 16(blq) ng.ml^-1 | Plasma product Ic concentration (48 h after dose, individual animals IV1-IV4, blq = below 20 ng.ml^-1, n.d. = not detected (≤ l.o.d. of 4 ng.ml^-1)): 4(blq) ng.ml^-1 | Brain product Ic concentration (48 h after dose, individual animals IV1-IV4, listed as product Ic, 40 mg/kg, 2880 min): 8541 ng/g and 7704 ng/g and 7986 ng/g | Brain product Ic concentration (72 h after dose, individual animals IV1-IV4, listed as product Ic, 40 mg/kg, 4320 min): 5511 ng/g and 5692 ng/g and 3894 ng/g | Plasma product Ic concentration (time after dose printed as '-' (line between 1h and 4h), MEAN): 4283 ng/mL | Plasma product Ic concentration (time after dose printed as '-' (line between 1h and 4h), individual animals IV1-IV4, 40 mg/kg): 4633 ng/mL and 4337 ng/mL and 4600 ng/mL and 3564 ng/mL | concentration at 2 min (brain, iv, 40 mg/kg, 2 min after dose, MEAN, read-out: Brain product Ic concentration): 7890 ng/g | concentration at 2 min (brain, iv, 40 mg/kg, 2 min after dose, individual animals IV1-IV4, read-out: Brain product Ic concentration): 6960 ng/g | concentration at 5 min (brain, iv, 40 mg/kg, 5 min after dose, MEAN, read-out: Brain product Ic concentration): 8170 ng/g | concentration at 5 min (brain, iv, 40 mg/kg, 5 min after dose, individual animals IV1-IV4, read-out: Brain product Ic concentration): 8340 ng/g | concentration at 0.25 h (brain, iv, 40 mg/kg, 15 min after dose, MEAN, read-out: Brain product Ic concentration): 6760 ng/g | concentration at 0.25 h (brain, iv, 40 mg/kg, 15 min after dose, individual animals IV1-IV4, read-out: Brain product Ic concentration): 5810 ng/g | concentration at 0.5 h (brain, iv, 40 mg/kg, 0.5h after dose, MEAN, read-out: Brain product Ic concentration): 7320 ng/g | concentration at 0.5 h (brain, iv, 40 mg/kg, 0.5h after dose, individual animals IV1-IV4, read-out: Brain product Ic concentration): 7260 ng/g | concentration at 0.75 h (brain, iv, 40 mg/kg, 0.75h after dose, MEAN, read-out: Brain product Ic concentration): 7640 ng/g | concentration at 0.75 h (brain, iv, 40 mg/kg, 0.75h after dose, individual animals IV1-IV4, read-out: Brain product Ic concentration): 7680 ng/g | concentration at 1 h (brain, iv, 40 mg/kg, 1h after dose, MEAN, read-out: Brain product Ic concentration): 6160 ng/g | concentration at 2 h (brain, iv, 40 mg/kg, 2h after dose, MEAN, read-out: Brain product Ic concentration): 7590 ng/g | concentration at 2 h (brain, iv, 40 mg/kg, 2h after dose, individual animals IV1-IV4, read-out: Brain product Ic concentration): 7960 ng/g | concentration at 4 h (brain, iv, 40 mg/kg, 4h after dose, MEAN, read-out: Brain product Ic concentration): 6760 ng/g
